A melting point compilation (Tetko et al.)

| SMILES | melting point |
| --- | --- |
| CC(C)(C)c1nn(-c2ccccc2)c(Cl)c1C=O | 34 to 36 °C |
| COc1c(C=O)c(C)nn1C | 55 to 57 °C |
| Cc1cc(Br)c2ccccc2c1N | 79 to 81 °C |
| Cn1ccnc1SCc1cccc(C(=O)O)c1 | 157 to 159 °C |
| NNc1ccc(S(=O)(=O)NC2CCCC2)cn1 | 167 to 169 °C |
| NCC(O)COc1cccc(Cl)c1Cl (stereo not drawn) | 110 to 112 °C |
| Nc1cc(-c2cccs2)nn1-c1ccccc1 | 121 to 123 °C |
| Cc1cc(C)c2ncc(C(=O)O)c(O)c2c1 | 282 to 284 °C |
| CC(C)=CC(=O)NCc1ccc(C(=O)O)cc1 | 187 to 189 °C |
| O=C(O)c1ccc(Cl)c(N2CCCC2=O)c1 | 288 to 290 °C |
| COc1ccc(C(=O)O)cc1S(=O)(=O)N(C)Cc1ccccc1 | 180 to 182 °C |
| NNC(=O)c1nnc(-c2ccccc2)o1 | 173 to 175 °C |
| Cc1cc(O)cc(=O)o1 | 188 to 190 °C |
| NS(=O)(=O)N1CCNCC1 | 164 to 166 °C |
| CCOc1cc(C(=O)N(C)C)ccc1N | 107 to 109 °C |
| NS(=O)(=O)c1nc2ccccc2s1 | 177 to 179 °C |
| CCOc1ccc(-c2csc(N)n2)cc1 | 248 to 250 °C |
| CC(C)OCCS(=O)(=O)NCC(=O)O | 63 to 65 °C |
| O=C(O)C(=O)c1ccc2c(c1)CCCC2 | 70 to 72 °C |
| O=CC1=C(Sc2nc3ccccc3o2)CCCC1 | 93 to 95 °C |
| O=C(O)c1ccc(NC(=O)c2cccs2)cc1 | 227 to 229 °C |
| Nc1cccc(-c2nc(C3CC3)no2)c1 | 89 to 91 °C |
| COc1ccc(N)cc1OCc1ccc2ccccc2n1 | 106 to 108 °C |
| C=CS(=O)(=O)c1ccc([N+](=O)[O-])cc1 | 112 to 114 °C |

| SMILES | melting point |
| --- | --- |
| NCC(O)c1ccc2ccccc2c1 (stereo not drawn) | 115 to 117 °C |
| O=C1NCCN2CCCC12 (stereo not drawn) | 73 to 75 °C |
| O=[N+]([O-])c1cc2c(cc1Br)OCCO2 | 167 to 169 °C |
| O=C(O)C1(C(=O)NC2CC2)CCC1 | 139 to 141 °C |
| O=C1CCCc2[nH]c(=O)c(C(=O)O)cc21 | 289 to 291 °C |
| Clc1ccncc1Cl | 22 to 23 °C |
| O=C(Cc1ccc(F)cc1)N1CCNCC1 | 65 to 67 °C |
| O=C(CCl)NCC(=O)c1cccs1 | 133 to 135 °C |
| Nc1ccccc1NC12CC3CC(CC(C3)C1)C2 | 92 to 94 °C |
| COc1ccc2c(c1)NC(=O)CCC2 | 127 to 129 °C |
| O=C(Nc1ccc(C(=O)O)c(O)c1)c1cccc(Br)c1 | 239 to 241 °C |
| O=C(O)c1sc2cccc(Cl)c2c1Cl | 273 to 275 °C |
| C=CCNc1nc(C(=O)OCC)cs1 | 84 to 86 °C |
| CC1(O)CCC(N)CC1 (stereo not drawn) | 89 to 91 °C |
| Nc1ccc(-n2cc(S(N)(=O)=O)cn2)nc1 | 218 to 220 °C |
| O=S(=O)(Cl)Cc1ccc2ccccc2c1 | 97 to 99 °C |
| Fc1cc2cccnc2cc1F | 109 to 111 °C |
| CC(N)c1ccc(OCc2ccc(F)cc2)cc1 (stereo not drawn) | 52 to 54 °C |
| CC(Nc1ccc(N(C)C)cc1)c1ccccn1 (stereo not drawn) | 121 to 123 °C |
| C/C(=N/O)c1cnn(C)c1 | 144 to 146 °C |
| Cc1cc(F)ccc1-n1ccc(C(=O)O)n1 | 197 to 199 °C |
| NC(=NO)c1cccs1 | 81 to 83 °C |
| CCc1cccc(C)c1NC(=O)CCl | 100 to 110 °C |
| O=C1CC(C(=O)O)CCN1 (stereo not drawn) | 164 to 166 °C |

| SMILES | melting point |
| --- | --- |
| O=C(O)CN1CCCC1CO (stereo not drawn) | 146 to 148 °C |
| Sc1nnc(C2CC2)s1 | 108 to 110 °C |
| Cc1cc(C(N)=S)ccc1F | 89 to 91 °C |
| CC(C)C(C#N)NC(=O)OC(C)(C)C (stereo not drawn) | 73 to 75 °C |
| NC(c1ccncc1)c1ccc(F)cc1 (stereo not drawn) | 63 to 65 °C |
| O=C(O)Cn1ccc2ccccc21 | 169 to 171 °C |
| CC(C)(C)CC(=O)NCC(=O)O | 106 to 108 °C |
| COc1ccc(C)cc1-n1nnnc1S | 164 to 166 °C |
| COc1cccc(-n2c(S)nc(O)cc2=O)c1 | 197 to 199 °C |
| O=C(O)C1CC1c1ccco1 (stereo not drawn) | 51 to 53 °C |
| CCS(=O)(=O)c1ccccc1N1CCC(N)CC1 | 119 to 121 °C |
| CCOc1ccc(S(=O)(=O)Cl)cn1 | 47 to 49 °C |
| Nc1ccc(Cl)cc1C(=O)Nc1ccncc1 | 169 to 171 °C |
| Nc1cc([N+](=O)[O-])ccc1Sc1cccs1 | 94 to 96 °C |
| O=C1C(Br)CCN1c1cccc(Cl)c1 (stereo not drawn) | 89 to 91 °C |
| CC(=O)CSc1ccccc1C(=O)O | 158 to 160 °C |
| NC(=O)NC(CC(=O)O)c1ccccc1 (stereo not drawn) | 194 to 196 °C |
| Oc1cccc(-c2nnco2)c1 | 211 to 213 °C |
| O=C(O)c1[nH]c2ccccc2c1Cl | 179 to 181 °C |
| CC(C)n1cccc1C(=O)Nc1cc(Cl)ccc1C(=O)O | 226 to 228 °C |
| O=C(NC1CCCNC1)c1ccccc1 (stereo not drawn) | 130 to 132 °C |
| O=C(O)C(c1ccccc1)N1CCS(=O)(=O)CC1 (stereo not drawn) | 165 to 167 °C |
| O=C(O)C1CCN(c2ccc3c(c2)OCCO3)C1=O (stereo not drawn) | 122 to 124 °C |
| NNS(=O)(=O)c1ccc(Br)cc1 | 225 to 227 °C |

| SMILES | melting point |
| --- | --- |
| Fc1ccc(-c2cc3ncnc(Cl)c3s2)cc1 | 202 to 206 °C |
| Cc1cc2c(N3CCCC3C(=O)O)ncnc2s1 (stereo not drawn) | 129 to 131 °C |
| NNC(=O)Cc1cccs1 | 64 to 66 °C |
| CC(C)(C)c1noc(C(N2CCOCC2)N2CCOCC2)n1 | 80 to 82 °C |
| CCNC(=O)COc1ccc(N)cc1 | 95 to 97 °C |
| O=C(O)CCCCc1ccc(Br)cc1 | 90 to 92 °C |
| O=C(O)c1cc(NCc2ccccc2)nc2ccccc12 | 339 to 341 °C |
| Cn1c(NN)nnc1-c1ccccc1 | 147 to 149 °C |
| COc1cc2c(cc1C(=O)CCl)C(=O)CO2 | 176 to 178 °C |
| CC(Oc1cccc(CO)c1)C(=O)O (stereo not drawn) | 95 to 97 °C |
| CC(C)(C)OC(=O)N1CCN(CC(=O)O)C(=O)C1 | 149 to 151 °C |
| NC(=O)c1c(-c2ccc(C(F)(F)F)cc2)csc1N | 158 to 160 °C |
| OCCOc1cc(Cl)ccc1Cl | 59 to 61 °C |
| Nc1nc(-c2ccc3ccccc3n2)n[nH]1 | 297 to 299 °C |
| Cn1cc(C(=O)CBr)cn1 | 116 to 118 °C |
| CN(C)S(=O)(=O)c1c[nH]c(C(=O)O)c1 | 197 to 199 °C |
| Cc1oncc1C(=O)Nc1ccc(CC(=O)O)cc1 | 208 to 210 °C |
| CC(C)Oc1ccc(C(O)CN2CCN(C)CC2)cc1 (stereo not drawn) | 103 to 105 °C |
| N#Cc1ccc(F)c(F)c1N | 92 to 94 °C |
| Nc1ccc(NC(=O)CCN2C(=O)CNC2=O)cc1 | 234 to 236 °C |
| Cc1nccn1-c1cc(C(=O)O)c2ccccc2n1 | 229 to 231 °C |
| CN1CCC(Oc2ccc(C(=O)O)cc2)CC1 | 218 to 220 °C |
| CCC(C)NC(=O)c1ccc(N)cc1 (stereo not drawn) | 101 to 104 °C |
| COc1ccc(-c2cc(N)ccc2OC(F)F)cc1 | 131 to 135 °C |

| SMILES | melting point |
| --- | --- |
| O=C(O)C(Oc1ccc(Cl)cc1)c1ccccc1 (stereo not drawn) | 161 to 163 °C |
| O=C(Cc1nc2ccccc2s1)c1ccccc1 | 113 to 115 °C |
| O=C(O)CCn1cnc2cc(F)c(F)cc21 | 157 to 159 °C |
| CC(C)(C)CS(N)(=O)=O | 119 to 121 °C |
| COc1ccc(NS(=O)(=O)c2cccs2)cc1 | 120 to 122 °C |
| COC(=O)C1(C)CCc2ccccc2C1=O (stereo not drawn) | 56 to 58 °C |
| CNC1(c2ccccc2Cl)CCCC(=Cc2cccs2)C1=O (stereo not drawn) | 129 to 131 °C |
| O=C(c1ccc(Br)cc1)c1cccnc1 | 124 to 126 °C |
| COC(=O)c1c(C)nn(C)c1Cl | 36 to 38 °C |
| Cc1ccc(Nc2snc(O)c2C#N)cc1 | 232 to 234 °C |
| Nc1c(-c2ccccc2)nn(-c2ccccc2)c1N | 89 to 91 °C |
| NC(=O)CCNc1ccccc1[N+](=O)[O-] | 136 to 138 °C |
| O=C(OCCl)OC1CCCCC1 | 36 to 38 °C |
| NNC(=O)Cc1cn2ccccc2n1 | 128 to 130 °C |
| O=C(O)c1ccnc(SCC(F)(F)F)c1 | 104 to 106 °C |
| NC(=O)c1ccc(CSc2ccc(C(=O)O)cc2)cc1 | 304 to 306 °C |
| Cc1ccc(-c2nc(N)sc2CN(C)C)cc1 | 175 to 177 °C |
| O=C(O)CN1c2cccc3cccc(c23)S1(=O)=O | 216 to 218 °C |
| Cc1ccc(N)c(-c2nc(C3CC3)n[nH]2)c1 | 205 to 207 °C |
| Cc1ncc(CO)n1-c1ccccc1 | 173 to 175 °C |
| COC(=O)C(C)NC(=O)Cc1ccc(Cl)cc1 (stereo not drawn) | 82 to 84 °C |
| Nc1ccc(S(=O)(=O)Nc2ccc(Cl)c(C(F)(F)F)c2)cc1 | 144 to 146 °C |
| O=c1c([N+](=O)[O-])c(Cl)nc2ccccn12 | 212 to 214 °C |
| Cc1ccc(C2CC2C(=O)O)s1 (stereo not drawn) | 45 to 47 °C |

| SMILES | melting point |
| --- | --- |
| O=C(O)c1ccc(-c2ccc(-c3ccccc3)cc2)s1 | 272 to 274 °C |
| CN1C(=O)CCC(C(=O)O)C1c1ccccc1 (stereo not drawn) | 204 to 206 °C |
| CNc1ccc(Cl)cc1[N+](=O)[O-] | 106 to 108 °C |
| Nc1cc(Cc2ccccc2)ccc1O | 136 to 138 °C |
| COc1ccc(N)cc1NC(=O)c1ccc(Cl)cc1F | 140 to 142 °C |
| O=S(=O)(CCCBr)c1ccc(F)cc1 | 36 to 38 °C |
| O=C(O)C1CCN(S(=O)(=O)c2ccc3c(c2)OCCCO3)CC1 | 173 to 178 °C |
| NC(CC1C(=O)Nc2ccccc21)=NO (stereo not drawn) | 183 to 185 °C |
| Nc1cc(-c2cccs2)ncn1 | 222 to 224 °C |
| Cc1ccc(SC(C(=O)O)c2ccccc2)c(C)c1 (stereo not drawn) | 130 to 132 °C |
| CCOc1ccc(OC(C)(C)C(=O)O)cc1 | 66 to 68 °C |
| O=C(O)CC1Sc2ccc(C(F)(F)F)cc2NC1=O (stereo not drawn) | 236 to 238 °C |
| CCOC(=O)c1csc(Nc2ccc(OC)cc2)n1 | 117 to 119 °C |
| NC(=S)Cc1ccccc1 | 84 to 86 °C |
| Cc1cc(C(=O)CCl)c(C)n1-c1ccc(OC(F)F)cc1 | 83 to 87 °C |
| NC(=S)c1cccc(O)c1 | 152 to 154 °C |
| CCc1cc(=O)n2c([nH]c3ccccc32)c1C#N | 244 to 246 °C |
| CC(N)(C(=O)O)c1ccccc1 (stereo not drawn) | 169 to 171 °C |
| O=C(O)c1cnc2scc(-c3ccccc3)n2c1=O | 244 to 246 °C |
| O=[N+]([O-])c1c(Cl)ccc2scnc12 | 132 to 134 °C |
| Cc1oc(C(=O)O)cc1S(=O)(=O)Cl | 114 to 116 °C |
| CC1(C)C(=O)NS1(=O)=O | 137 to 139 °C |
| CCOC(=O)c1cnc2ccc(C)cc2c1Cl | 62 to 64 °C |
